“And” between values parts separate entries of the source, which are not always exact repeats. Equal entries are not always repeated. ± gives the expanded uncertainty stated by the source.
Details: Liquid, Vibrating tube method

CCCCCC(=O)OCC(COC(=O)CCCCC)(COC(=O)CCCCC)COC(=O)CCCCC [pentaerythritol tetrahexanoate]
mass density (323.14 K, 9872.1 kPa): 979.5 ± 1.2 kg/m3
mass density (323.14 K, 9877.7 kPa): 979.4 ± 1.2 kg/m3
mass density (323.14 K, 9882.8 kPa): 979.5 ± 1.2 kg/m3
mass density (323.14 K, 9890.7 kPa): 979.4 ± 1.2 kg/m3
mass density (323.14 K, 10279 kPa): 979.8 ± 1.2 kg/m3
mass density (323.14 K, 10299 kPa): 979.7 ± 1.2 kg/m3
mass density (323.14 K, 10325 kPa): 979.8 ± 1.2 kg/m3
mass density (323.14 K, 10354 kPa): 979.8 ± 1.2 kg/m3
mass density (323.14 K, 10377 kPa): 979.8 ± 1.2 kg/m3
mass density (323.14 K, 10409 kPa): 979.8 ± 1.2 kg/m3
mass density (323.14 K, 10437 kPa): 979.7 ± 1.2 kg/m3
mass density (323.14 K, 10641 kPa): 980 ± 1.2 kg/m3
mass density (323.14 K, 10798 kPa): 980.1 ± 1.2 kg/m3
mass density (323.14 K, 10825 kPa): 980 ± 1.2 kg/m3
mass density (323.14 K, 10850 kPa): 980 ± 1.2 kg/m3
mass density (323.14 K, 10879 kPa): 980.1 ± 1.2 kg/m3
mass density (323.14 K, 10908 kPa): 980.2 ± 1.2 kg/m3
mass density (323.14 K, 10930 kPa): 980.1 ± 1.2 kg/m3
mass density (323.14 K, 11644 kPa): 980.6 ± 1.2 kg/m3
mass density (323.14 K, 11671 kPa): 980.7 ± 1.2 kg/m3
mass density (323.14 K, 11694 kPa): 980.7 ± 1.2 kg/m3
mass density (323.14 K, 11721 kPa): 980.6 ± 1.2 kg/m3
mass density (323.14 K, 11748 kPa): 980.6 ± 1.2 kg/m3
mass density (323.14 K, 11771 kPa): 980.7 ± 1.2 kg/m3
mass density (323.14 K, 11798 kPa): 980.7 ± 1.2 kg/m3
mass density (323.14 K, 11821 kPa): 980.9 ± 1.2 kg/m3
mass density (323.14 K, 11872 kPa): 980.8 ± 1.2 kg/m3
mass density (323.14 K, 13057 kPa): 981.6 ± 1.2 kg/m3
mass density (323.14 K, 13085 kPa): 981.6 ± 1.2 kg/m3
mass density (323.14 K, 13108 kPa): 981.6 ± 1.2 kg/m3
mass density (323.14 K, 13136 kPa): 981.6 ± 1.2 kg/m3
mass density (323.14 K, 13163 kPa): 981.7 ± 1.2 kg/m3
mass density (323.14 K, 13448 kPa): 981.9 ± 1.2 kg/m3
mass density (323.14 K, 13476 kPa): 981.9 ± 1.2 kg/m3
mass density (323.14 K, 13500 kPa): 982 ± 1.2 kg/m3
mass density (323.14 K, 13529 kPa): 981.8 ± 1.2 kg/m3
mass density (323.14 K, 13553 kPa): 981.9 ± 1.2 kg/m3
mass density (323.14 K, 13581 kPa): 982 ± 1.2 kg/m3
mass density (323.14 K, 13609 kPa): 981.9 ± 1.2 kg/m3
mass density (323.14 K, 13633 kPa): 982 ± 1.2 kg/m3
mass density (323.14 K, 13661 kPa): 982 ± 1.2 kg/m3
mass density (323.14 K, 13684 kPa): 982 ± 1.2 kg/m3
mass density (323.14 K, 13711 kPa): 982.1 ± 1.2 kg/m3
mass density (323.14 K, 13739 kPa): 982.1 ± 1.2 kg/m3
mass density (323.14 K, 13763 kPa): 982 ± 1.2 kg/m3
mass density (323.14 K, 13791 kPa): 982.1 ± 1.2 kg/m3
mass density (323.14 K, 13814 kPa): 982 ± 1.2 kg/m3
mass density (323.14 K, 13841 kPa): 982.2 ± 1.2 kg/m3
mass density (323.14 K, 13868 kPa): 982.2 ± 1.2 kg/m3
mass density (323.14 K, 14047 kPa): 982.2 ± 1.2 kg/m3
mass density (323.14 K, 14070 kPa): 982.3 ± 1.2 kg/m3
mass density (323.14 K, 14098 kPa): 982.2 ± 1.2 kg/m3
mass density (323.14 K, 14122 kPa): 982.3 ± 1.2 kg/m3
mass density (323.14 K, 14149 kPa): 982.4 ± 1.2 kg/m3
mass density (323.14 K, 14177 kPa): 982.3 ± 1.2 kg/m3
mass density (323.14 K, 14200 kPa): 982.3 ± 1.2 kg/m3
mass density (323.14 K, 14229 kPa): 982.4 ± 1.2 kg/m3
mass density (323.14 K, 14257 kPa): 982.3 ± 1.2 kg/m3
mass density (323.14 K, 14281 kPa): 982.5 ± 1.2 kg/m3
mass density (323.14 K, 14309 kPa): 982.5 ± 1.2 kg/m3
mass density (323.14 K, 14333 kPa): 982.4 ± 1.2 kg/m3
mass density (323.14 K, 14362 kPa): 982.5 ± 1.2 kg/m3
mass density (323.14 K, 14385 kPa): 982.3 ± 1.2 kg/m3
mass density (323.14 K, 14412 kPa): 982.5 ± 1.2 kg/m3
mass density (323.14 K, 14435 kPa): 982.6 ± 1.2 kg/m3
mass density (323.14 K, 14462 kPa): 982.5 ± 1.2 kg/m3
mass density (323.14 K, 14491 kPa): 982.5 ± 1.2 kg/m3
mass density (323.14 K, 14542 kPa): 982.6 ± 1.2 kg/m3
mass density (323.14 K, 14860 kPa): 982.8 ± 1.2 kg/m3
mass density (323.14 K, 14888 kPa): 982.8 ± 1.2 kg/m3
mass density (323.14 K, 14912 kPa): 982.7 ± 1.2 kg/m3
mass density (323.14 K, 14941 kPa): 982.8 ± 1.2 kg/m3
mass density (323.14 K, 14965 kPa): 982.8 ± 1.2 kg/m3
mass density (323.14 K, 14994 kPa): 982.8 ± 1.2 kg/m3
mass density (323.14 K, 15019 kPa): 982.8 ± 1.2 kg/m3
mass density (323.14 K, 15047 kPa): 982.8 ± 1.2 kg/m3
mass density (323.14 K, 15070 kPa): 982.8 ± 1.2 kg/m3
mass density (323.14 K, 15098 kPa): 983 ± 1.2 kg/m3
mass density (323.14 K, 15126 kPa): 982.9 ± 1.2 kg/m3
mass density (323.14 K, 15150 kPa): 982.9 ± 1.2 kg/m3
mass density (323.14 K, 15177 kPa): 983.1 ± 1.2 kg/m3
mass density (323.14 K, 15205 kPa): 983 ± 1.2 kg/m3
mass density (323.14 K, 15229 kPa): 983 ± 1.2 kg/m3
mass density (323.14 K, 32387 kPa): 993.4 ± 1.2 kg/m3
mass density (323.14 K, 32388 kPa): 993.7 ± 1.2 kg/m3 and 993.6 ± 1.2 kg/m3 and 993.5 ± 1.2 kg/m3
mass density (323.14 K, 32389 kPa): 993.5 ± 1.2 kg/m3 and 993.6 ± 1.2 kg/m3
mass density (323.14 K, 32390 kPa): 993.5 ± 1.2 kg/m3 and 993.6 ± 1.2 kg/m3
mass density (323.14 K, 32391 kPa): 993.5 ± 1.2 kg/m3
mass density (323.14 K, 32392 kPa): 993.6 ± 1.2 kg/m3
mass density (323.14 K, 32393 kPa): 993.5 ± 1.2 kg/m3
mass density (323.14 K, 32394 kPa): 993.5 ± 1.2 kg/m3
mass density (323.14 K, 32395 kPa): 993.5 ± 1.2 kg/m3
mass density (323.14 K, 32396 kPa): 993.5 ± 1.2 kg/m3 and 993.6 ± 1.2 kg/m3
mass density (323.14 K, 32398 kPa): 993.5 ± 1.2 kg/m3
mass density (323.14 K, 32399 kPa): 993.5 ± 1.2 kg/m3
mass density (323.14 K, 32400 kPa): 993.6 ± 1.2 kg/m3
mass density (323.14 K, 32401 kPa): 993.6 ± 1.2 kg/m3
mass density (323.14 K, 32402 kPa): 993.4 ± 1.2 kg/m3
mass density (323.14 K, 32403 kPa): 993.5 ± 1.2 kg/m3
mass density (323.14 K, 32404 kPa): 993.5 ± 1.2 kg/m3
mass density (323.15 K, 370.6 kPa): 972.9 ± 1.2 kg/m3
mass density (323.15 K, 372.9 kPa): 972.9 ± 1.2 kg/m3
mass density (323.15 K, 374.8 kPa): 973 ± 1.2 kg/m3
mass density (323.15 K, 377 kPa): 972.9 ± 1.2 kg/m3
mass density (323.15 K, 379.5 kPa): 972.9 ± 1.2 kg/m3
mass density (323.15 K, 381.7 kPa): 973 ± 1.2 kg/m3
mass density (323.15 K, 444.1 kPa): 973 ± 1.2 kg/m3
mass density (323.15 K, 447.6 kPa): 973 ± 1.2 kg/m3
mass density (323.15 K, 450.5 kPa): 973 ± 1.2 kg/m3
mass density (323.15 K, 453.3 kPa): 973 ± 1.2 kg/m3
mass density (323.15 K, 456.4 kPa): 973.1 ± 1.2 kg/m3
mass density (323.15 K, 460.3 kPa): 973 ± 1.2 kg/m3
mass density (323.15 K, 463.4 kPa): 973 ± 1.2 kg/m3
mass density (323.15 K, 466.7 kPa): 973 ± 1.2 kg/m3
mass density (323.15 K, 470.7 kPa): 973 ± 1.2 kg/m3
mass density (323.15 K, 473.8 kPa): 972.9 ± 1.2 kg/m3
mass density (323.15 K, 520.2 kPa): 973 ± 1.2 kg/m3
mass density (323.15 K, 524.4 kPa): 973.1 ± 1.2 kg/m3
mass density (323.15 K, 528.6 kPa): 973.1 ± 1.2 kg/m3
mass density (323.15 K, 532.7 kPa): 973 ± 1.2 kg/m3
mass density (323.15 K, 536.7 kPa): 973 ± 1.2 kg/m3
mass density (323.15 K, 542.1 kPa): 973 ± 1.2 kg/m3
mass density (323.15 K, 546.3 kPa): 972.9 ± 1.2 kg/m3
mass density (323.15 K, 551.3 kPa): 973.1 ± 1.2 kg/m3
mass density (323.15 K, 555.7 kPa): 973.2 ± 1.2 kg/m3
mass density (323.15 K, 560.2 kPa): 973.1 ± 1.2 kg/m3
mass density (323.15 K, 564.7 kPa): 973 ± 1.2 kg/m3
mass density (323.15 K, 567.1 kPa): 973 ± 1.2 kg/m3
mass density (323.15 K, 567.3 kPa): 973.1 ± 1.2 kg/m3
mass density (323.15 K, 568.2 kPa): 973 ± 1.2 kg/m3
mass density (323.15 K, 569.7 kPa): 973.1 ± 1.2 kg/m3
mass density (323.15 K, 571.8 kPa): 973.1 ± 1.2 kg/m3
mass density (323.15 K, 573.7 kPa): 973.1 ± 1.2 kg/m3
mass density (323.15 K, 575.6 kPa): 973.1 ± 1.2 kg/m3
mass density (323.15 K, 592.7 kPa): 973.1 ± 1.2 kg/m3
mass density (323.15 K, 594.8 kPa): 973.2 ± 1.2 kg/m3
mass density (323.15 K, 596.6 kPa): 973.1 ± 1.2 kg/m3
mass density (323.15 K, 598.6 kPa): 973.1 ± 1.2 kg/m3
mass density (323.15 K, 601.2 kPa): 973 ± 1.2 kg/m3
mass density (323.15 K, 603.4 kPa): 973 ± 1.2 kg/m3
mass density (323.15 K, 605.2 kPa): 973.1 ± 1.2 kg/m3
mass density (323.15 K, 607.4 kPa): 973.1 ± 1.2 kg/m3
mass density (323.15 K, 609.9 kPa): 973 ± 1.2 kg/m3
mass density (323.15 K, 612 kPa): 973.1 ± 1.2 kg/m3
mass density (323.15 K, 614 kPa): 973.1 ± 1.2 kg/m3

From the NIST ThermoML archive (doi:10.1021/je060271a)
